Consider 25 molecules from patent publication US12503475B2 (Centessa Pharmaceuticals (UK) Limited, priority 2020, dated 2025).

For this experiment, the target named is T1, human orexin type 2 receptor (hOX2R) (Homo sapiens, UniProt O43614).
T1 construct: expressed in transfected cells
T1 sequence (O43614 1-444): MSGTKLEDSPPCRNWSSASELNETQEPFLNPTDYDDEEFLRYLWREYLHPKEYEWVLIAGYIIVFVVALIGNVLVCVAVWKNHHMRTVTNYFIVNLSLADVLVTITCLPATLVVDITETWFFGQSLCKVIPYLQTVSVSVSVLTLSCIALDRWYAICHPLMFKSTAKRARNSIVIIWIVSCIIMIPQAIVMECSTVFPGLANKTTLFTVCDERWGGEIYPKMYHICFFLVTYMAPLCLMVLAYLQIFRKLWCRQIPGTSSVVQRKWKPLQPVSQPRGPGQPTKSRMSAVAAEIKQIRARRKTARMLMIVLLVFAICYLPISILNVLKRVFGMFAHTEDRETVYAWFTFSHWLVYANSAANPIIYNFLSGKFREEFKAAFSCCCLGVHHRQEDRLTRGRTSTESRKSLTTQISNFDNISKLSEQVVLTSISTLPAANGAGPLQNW
Briefly: Measurement of orexin type 2 receptor agonist activity (FLIPR calcium fluorescence). The class given is cell-based. Particulars: CHO cells expressing hOX2R, FLIPR calcium fluorescence; for EC50: read-out: hOx2 pEC50 (converted); for Emax: CHO, read-out: hOx2 Emax (%). The gist of the method: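 Agonism was read as fluorescence in cells stably expressing human OX2R. E. is the response at 10 μM relative to orexin A as full agonist (100%).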

On to `CS(=O)(=O)NC1C(Cc2cccc(-c3ccccc3)c2F)N(C(=O)N2CC(F)C2)CC12CC2` (racemic) [Compound 45, N-(6-((2-fluoro-[1,1′-biphenyl]-3-yl)methyl)-5-(3-fluoroazetidine-1-carbonyl)-5-azaspiro[2.4]heptan-7-yl)methanesulfonamide], for which the EC50 is 1 to 10 nM and the Emax (commonly the maximal effect, on the per cent scale that the assay sets) was 90 to 100%.
As for `CC(F)C(=O)N1CC2(CC2)C(NS(C)(=O)=O)C1Cc1cccc(-c2ccccc2)c1` (single isomer, unassigned) [Compound 2, N-(6-([1,1′-biphenyl]-3-ylmethyl)-5-(2-fluoropropanoyl)-5-azaspiro[2.4]heptan-7-yl)methanesulfonamide], the “hOx2 Emax (%)” value is “C (Emax ranging between 70 and 80)”; the EC50 is 100 to 1000 nM.
With `COC[C@@H](O)C(=O)N1CC2(CC2)[C@H](NS(=O)(=O)CF)[C@@H]1Cc1cccc(-c2ccccc2)c1F` [Compound 372, 1-fluoro-N-((6S,7S)-6-((2-fluoro-[1,1′-biphenyl]-3-yl)methyl)-5-((R)-2-hydroxy-3-methoxypropanoyl)-5-azaspiro[2.4]heptan-7-yl)methanesulfonamide], the EC50 is 1 to 10 nM and the Emax lay in the range of 90 to 100%.
For `O=C(NCC1COC1)N1CC2(CC2)[C@H](NS(=O)(=O)CF)[C@@H]1Cc1cccc(-c2ccccc2)c1F` [Compound 366, (6S,7S)-6-((2-fluoro-[1,1′-biphenyl]-3-yl)methyl)-7-((fluoromethyl)sulfonamido)-N-(oxetan-3-ylmethyl)-5-azaspiro[2.4]heptane-5-carboxamide] the same measures were 1 to 10 nM and 90 to 100%.
For `CS(=O)(=O)NC1C(Cc2cccc(-c3ccccc3)c2)N(C(=O)C23CC2C3)CC12CC2` (racemic) [Compound 66, N-(6-([1,1′-biphenyl]-3-ylmethyl)-5-(bicyclo[1.1.0]butane-1-carbonyl)-5-azaspiro[2.4]heptan-7-yl)methanesulfonamide] the same measures were 10 to 100 nM and 90 to 100%.
For `O=C([C@H]1CCO1)N1CC2(CC2)[C@H](NS(=O)(=O)N2CCC2)[C@@H]1Cc1cccc(-c2ccccc2)c1` [Compound 76, N-((6S,7S)-6-([1,1′-biphenyl]-3-ylmethyl)-5-((R)-oxetane-2-carbonyl)-5-azaspiro[2.4]heptan-7-yl)azetidine-1-sulfonamide] the same measures were 10 to 100 nM and 90 to 100%.
With `CS(=O)(=O)N[C@@H]1[C@H](Cc2cccc(-c3ccccc3)c2)N(C(=O)C2(O)CCC2)CC12CC2` (racemic) [Compound 298], the EC50 is 1 to 10 nM and the Emax was in the range of 90 to 100%.
The matching figures for `O=C([C@H]1CCO1)N1CC2(CC2)[C@H](NS(=O)(=O)N2CCCC2)[C@@H]1Cc1cccc(-c2ccccc2)c1` [Compound 96, N-((6S,7S)-6-([1,1′-biphenyl]-3-ylmethyl)-5-((R)-oxetane-2-carbonyl)-5-azaspiro[2.4]heptan-7-yl)pyrrolidine-1-sulfonamide]: 10 to 100 nM and 80 to 90%.
For `COCCNC(=O)N1CC2(CC2)[C@H](NS(C)(=O)=O)[C@@H]1Cc1cccc(-c2ccccc2)c1F` (racemic) [Compound 306, 6-((2-fluoro-[1,1′-biphenyl]-3-yl)methyl)-N-(2-methoxyethyl)-7-(methylsulfonamido)-5-azaspiro[2.4]heptane-5-carboxamide] the same measures were 10 to 100 nM and 90 to 100%.
Consider `C[C@@H](F)C(=O)N1CC2(CC2)[C@H](NS(=O)(=O)CF)[C@@H]1Cc1cc(F)cc(-c2cc(F)cc(F)c2)c1F` [Compound 414, 1-fluoro-N-((6S,7S)-5-((R)-2-fluoropropanoyl)-6-((2,3′,5,5′-tetrafluoro-[1,1′-biphenyl]-3-yl)methyl)-5-azaspiro[2.4]heptan-7-yl)methanesulfonamide], for which the EC50 was 0.0794 to 1 nM and the Emax lay in the range of 90 to 100%.
For `CCN(C)S(=O)(=O)N[C@@H]1[C@H](Cc2cccc(-c3ccccc3)c2)N(C(=O)[C@H]2CCO2)CC12CC2` [Compound 78, N-((6S,7S)-6-([1,1′-biphenyl]-3-ylmethyl)-5-((R)-oxetane-2-carbonyl)-5-azaspiro[2.4]heptan-7-yl)-N-methyl-N-ethylsulfuric diamide] the same measures were 10 to 100 nM and 90 to 100%.
On to `CS(=O)(=O)NC1C(Cc2cccc(-c3cccc(F)c3)c2)N(C(=O)C2(O)CCC2)CC12CC2` (racemic) [Compound 51, N-(6-((3′-fluoro-[1,1′-biphenyl]-3-yl)methyl)-5-(1-hydroxycyclobutane-1-carbonyl)-5-zaspiro[2.4]heptan-7-yl)methanesulfonamide], for which the EC50 was 1 to 10 nM and the Emax is 90 to 100%.
For the molecule `COC[C@H]1CCN1C(=O)N1CC2(CC2)[C@H](NS(C)(=O)=O)[C@@H]1Cc1cccc(-c2ccccc2)c1F` [Compound 103, N-((6S,7S)-6-((2-fluoro-[1,1′-biphenyl]-3-yl)methyl)-5-((R)-2-(methoxymethyl)azetidine-1-carbonyl)-5-azaspiro[2.4]heptan-7-yl)methanesulfonamide], the EC50 was 10 to 100 nM and the Emax lay within 90 to 100%.
The matching figures for `CO[C@@H](C)CN(C)C(=O)N1CC2(CC2)[C@H](NS(C)(=O)=O)[C@@H]1Cc1cccc(-c2ccccc2)c1F` [Compound 316]: 1 to 10 nM and 90 to 100%.
The matching figures for `O=C([C@H]1CCO1)N1CC2(CC2)[C@H](NS(=O)(=O)CF)[C@@H]1Cc1cccc(-c2cccc(F)c2)c1F` [Compound 132, N-((6S,7S)-6-((2,3′-dfluoro-1,1′-biphenyl-3-yl)methyl)-5-((R)-oxetane-2-carbonyl)-5-azaspiro[2.4]heptan-7-yl)-1-fluoromethanesulfonamide]: 0.0794 to 1 nM and 90 to 100%.
The matching figures for `C[C@@H](F)C(=O)N1CC2(CC2)[C@H](NS(=O)(=O)CF)[C@@H]1Cc1cc(F)cc(-c2cccc(F)c2)c1F` [Compound 394]: 0.0794 to 1 nM and 90 to 100%.
Take `CCN(C)C(=O)N1CC2(CC2)[C@H](NS(C)(=O)=O)[C@@H]1Cc1cccc(-c2ccccc2)c1F` [Compound 88, (6S,7S)-N-ethyl-6-((2-fluoro-[1,1′-biphenyl]-3-yl)methyl)-N-methyl-7-(methylsulfonamido)-5-azaspiro[2.4]heptane-5-carboxamide]: the EC50 was 0.0794 to 1 nM and the Emax fell in the range of 90 to 100%.
As for `CC(C)C(=O)N1CC2(CC2)[C@H](NS(C)(=O)=O)[C@@H]1Cc1cccc(-c2ccccc2)c1` [Compound 17, N-((6S,7S)-6-([1,1′-biphenyl]-3-ylmethyl)-5-isobutyryl-5-azaspiro[2.4]heptan-7-yl)methanesulfonamide], the EC50 is 10 to 100 nM and the Emax lay within 90 to 100%.
For `CC(F)(F)C(=O)N1CC2(CC2)C(NS(C)(=O)=O)C1Cc1cccc(-c2cccc(F)c2)c1F` (racemic) [Compound 24, N-(6-((2,3′-difluoro-[1,1′-biphenyl]-3-yl)methyl)-5-(2,2-difluoropropanoyl)-5-azaspiro[2.4]heptan-7-yl)methanesulfonamide] the same measures were 10 to 100 nM and 80 to 90%.
In the case of `O=C(NCC(F)F)N1CC2(CC2)[C@H](NS(=O)(=O)C(F)F)[C@@H]1Cc1cc(F)cc(-c2cc(F)cc(F)c2)c1F` [Compound 387], the EC50 was 1 to 10 nM and the maximal effect (Emax) was 90 to 100%.
The matching figures for `CC(C)(C)C(=O)N1CC2(CC2)C(NS(C)(=O)=O)C1Cc1cccc(-c2cccc(F)c2)c1F` (racemic) [Compound 23]: 10 to 100 nM and 90 to 100%.
For `CN(C)S(=O)(=O)NC1C(Cc2cccc(-c3ccccc3)c2F)N(C(=O)C2CCC2)CC12CC2` (racemic) [Compound 92, N-(5-(cyclobutanecarbonyl)-6-((2-fluoro-[1,1′-biphenyl]-3-yl)methyl)-5-azaspiro[2.4]heptan-7-yl)-N,N-dimethylsulfuric diamide] the same measures were 1 to 10 nM and 90 to 100%.
Take `O=C([C@H](O)CF)N1CC2(CC2)[C@H](NS(=O)(=O)C(F)F)[C@@H]1Cc1cc(F)cc(-c2ccccc2)c1F` [Compound 390, N-((6S,7S)-6-((2,5-difluoro-[1,1′-biphenyl]-3-yl)methyl)-5-((S)-3-fluoro-2-hydroxypropanoyl)-5-azaspiro[2.4]heptan-7-yl)-1,1-difluoromethanesulfonamide]: the EC50 was 1 to 10 nM and the Emax lay in the range of 90 to 100%.
For `O=C([C@H]1CCO1)N1CC2(CC2)[C@H](NS(=O)(=O)CF)[C@@H]1Cc1cc(F)cc(-c2cccc(F)c2F)c1F` [Compound 217, 1-fluoro-N-((6S,7S)-5-((R)-oxetane-2-carbonyl)-6-((2,2′,3′,5-tetrafluoro-[1,1′-biphenyl]-3-yl)methyl)-5-azaspiro[2.4]heptan-7-yl)methanesulfonamide] the same measures were 1 to 10 nM and 90 to 100%.
For `O=C([C@H]1CCCO1)N1CC2(CC2)[C@H](NS(=O)(=O)CF)[C@@H]1Cc1cccc(-c2ccccc2)c1F` [Compound 401, 1-fluoro-N-((6S,7S)-6-((2-fluoro-[1,1′-biphenyl]-3-yl)methyl)-5-((R)-tetrahydrofuran-2-carbonyl)-5-azaspiro[2.4]heptan-7-yl)methanesulfonamide] the same measures were 1 to 10 nM and 90 to 100%.
